Laboratory results: the supplement of paper PMC10307832

How the values were obtained:
Test in all cases: relative viability (nuclei count vs DMSO), 5 days (fraction); higher = more cells survive
[1] = system: A-427
Summary of the method: (§1)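 Relative viability is defined as nuclei in treated wells over nuclei in vehicle wells. Duplicate plates were run and medians reported. Lung cancer cell lines in 1536-well plates were dosed by pin tool one day after seeding, with one drug or with a fixed anchor-drug dose plus five library-drug doses (not always all listed) in √10 steps, and nuclei were counted after 5 days.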

[2] = system: CAL-12T
Summary of the method: as §1

[3] = system: COR-L 105
Summary of the method: as §1

[4] = system: EPLC-272H
Summary of the method: as §1

[5] = system: HCC-15
Summary of the method: as §1

[6] = system: HCC-44
Summary of the method: as §1

[7] = system: LC-2-ad
Summary of the method: as §1

[8] = system: LCLC-97TM1
Summary of the method: as §1

[9] = system: NCI-H1395
Summary of the method: as §1

[10] = system: NCI-H1734
Summary of the method: as §1

[11] = system: NCI-H1792
Summary of the method: as §1

[12] = system: NCI-H1915
Summary of the method: as §1

[13] = system: NCI-H1975
Summary of the method: as §1

[14] = system: NCI-H2023
Summary of the method: as §1

[15] = system: NCI-H2342
Summary of the method: as §1

[16] = system: NCI-H2347
Summary of the method: as §1

[17] = system: NCI-H2405
Summary of the method: as §1

[18] = system: NCI-H520
Summary of the method: as §1

[19] = system: NCI-H838
Summary of the method: as §1

[20] = system: SW 1573
Summary of the method: as §1

[21] = system: SW 900
Summary of the method: as §1

[22] = system: UMC-11
Summary of the method: as §1

`CCNC(=O)c1noc(-c2cc(C(C)C)c(O)cc2O)c1-c1ccc(CN2CCOCC2)cc1` [Luminespib] + CC(=O)c1c(C)c2cnc(Nc3ccc(N4CCNCC4)cn3)nc2n(C2CCCC2)c1=O [Palbociclib] (partner 0.5 µM) showed a relative viability ([1]; first compound 0.002 µM) of 0.516, a relative viability ([1]; first compound 0.006325 µM) of 0.488 and a relative viability ([1]; first compound 0.02 µM) of 0.503. For the same molecule, the relative viability ([1]; first compound 0.06325 µM) was 0.467, the relative viability ([1]; first compound 0.2 µM) was 0.258 and the relative viability ([2]; first compound 0.002 µM) was 0.601. It also gave a relative viability ([2]; first compound 0.006325 µM) of 0.467, a relative viability ([2]; first compound 0.02 µM) of 0.161 and a relative viability ([2]; first compound 0.06325 µM) of 0.11. For the same molecule, the relative viability ([2]; first compound 0.2 µM) was 0.0956, the relative viability ([3]; first compound 0.002 µM) was 0.412 and the relative viability ([3]; first compound 0.006325 µM) was 0.445. The relative viability ([3]; first compound 0.02 µM) was 0.366, the relative viability ([3]; first compound 0.06325 µM) was 0.265 and the relative viability ([3]; first compound 0.2 µM) was 0.289. The relative viability ([4]; first compound 0.002 µM) was 0.285, the relative viability ([4]; first compound 0.006325 µM) was 0.317 and the relative viability ([4]; first compound 0.02 µM) was 0.284. For the same molecule, the relative viability ([4]; first compound 0.06325 µM) was 0.311, the relative viability ([4]; first compound 0.2 µM) was 0.0905 and the relative viability ([5]; first compound 0.002 µM) was 0.815. It also gave a relative viability ([5]; first compound 0.006325 µM) of 0.776, a relative viability ([5]; first compound 0.02 µM) of 0.875 and a relative viability ([5]; first compound 0.06325 µM) of 0.321. For the same molecule, the relative viability ([5]; first compound 0.2 µM) was 0.127, the relative viability ([6]; first compound 0.002 µM) was 0.942 and the relative viability ([6]; first compound 0.006325 µM) was 0.998. For the same molecule, the relative viability ([6]; first compound 0.02 µM) was 1.09, the relative viability ([6]; first compound 0.06325 µM) was 0.986 and the relative viability ([6]; first compound 0.2 µM) was 0.858. The relative viability ([7]; first compound 0.002 µM) was 0.473, the relative viability ([7]; first compound 0.006325 µM) was 0.486 and the relative viability ([7]; first compound 0.02 µM) was 0.556. The relative viability ([7]; first compound 0.06325 µM) was 0.478, the relative viability ([7]; first compound 0.2 µM) was 0.331 and the relative viability ([8]; first compound 0.002 µM) was 0.214. The relative viability ([8]; first compound 0.006325 µM) was 0.227, the relative viability ([8]; first compound 0.06325 µM) was 0.248 and the relative viability ([8]; first compound 0.2 µM) was 0.205. The relative viability ([9]; first compound 0.002 µM) was 0.645, the relative viability ([9]; first compound 0.006325 µM) was 0.631 and the relative viability ([9]; first compound 0.02 µM) was 0.498. The relative viability ([9]; first compound 0.06325 µM) was 0.338, the relative viability ([9]; first compound 0.2 µM) was 0.344 and the relative viability ([10]; first compound 0.002 µM) was 0.359. The relative viability ([10]; first compound 0.006325 µM) was 0.389, the relative viability ([10]; first compound 0.02 µM) was 0.334 and the relative viability ([10]; first compound 0.06325 µM) was 0.204. For the same molecule, the relative viability ([10]; first compound 0.2 µM) was 0.144, the relative viability ([11]; first compound 0.002 µM) was 0.691 and the relative viability ([11]; first compound 0.006325 µM) was 0.655. It also gave a relative viability ([11]; first compound 0.02 µM) of 0.622, a relative viability ([11]; first compound 0.06325 µM) of 0.316 and a relative viability ([11]; first compound 0.2 µM) of 0.278. It also gave a relative viability ([12]; first compound 0.002 µM) of 0.562, a relative viability ([12]; first compound 0.006325 µM) of 0.507 and a relative viability ([12]; first compound 0.02 µM) of 0.478. The relative viability ([12]; first compound 0.06325 µM) was 0.318, the relative viability ([12]; first compound 0.2 µM) was 0.24 and the relative viability ([13]; first compound 0.002 µM) was 0.614. The relative viability ([13]; first compound 0.006325 µM) was 0.469, the relative viability ([13]; first compound 0.02 µM) was 0.363 and the relative viability ([13]; first compound 0.06325 µM) was 0.103. For the same molecule, the relative viability ([13]; first compound 0.2 µM) was 0.122, the relative viability ([14]; first compound 0.002 µM) was 0.423 and the relative viability ([14]; first compound 0.006325 µM) was 0.364. The relative viability ([14]; first compound 0.02 µM) was 0.309, the relative viability ([14]; first compound 0.06325 µM) was 0.0518 and the relative viability ([14]; first compound 0.2 µM) was 0.0463. It also gave a relative viability ([15]; first compound 0.002 µM) of 0.527, a relative viability ([15]; first compound 0.006325 µM) of 0.527 and a relative viability ([15]; first compound 0.02 µM) of 0.438. The relative viability ([15]; first compound 0.06325 µM) was 0.526, the relative viability ([15]; first compound 0.2 µM) was 0.409 and the relative viability ([16]; first compound 0.002 µM) was 0.37. The relative viability ([16]; first compound 0.006325 µM) was 0.408, the relative viability ([16]; first compound 0.02 µM) was 0.38 and the relative viability ([16]; first compound 0.06325 µM) was 0.384. It also gave a relative viability ([16]; first compound 0.2 µM) of 0.301, a relative viability ([17]; first compound 0.002 µM) of 0.557 and a relative viability ([17]; first compound 0.02 µM) of 0.417. For the same molecule, the relative viability ([17]; first compound 0.06325 µM) was 0.172, the relative viability ([17]; first compound 0.2 µM) was 0.164 and the relative viability ([18]; first compound 0.002 µM) was 0.301. It also gave a relative viability ([18]; first compound 0.006325 µM) of 0.213, a relative viability ([18]; first compound 0.02 µM) of 0.176 and a relative viability ([18]; first compound 0.06325 µM) of 0.121. The relative viability ([18]; first compound 0.2 µM) was 0.135, the relative viability ([19]; first compound 0.002 µM) was 0.233 and the relative viability ([19]; first compound 0.006325 µM) was 0.252. The relative viability ([19]; first compound 0.02 µM) was 0.16, the relative viability ([19]; first compound 0.06325 µM) was 0.14 and the relative viability ([19]; first compound 0.2 µM) was 0.105. It also gave a relative viability ([20]; first compound 0.002 µM) of 0.426, a relative viability ([20]; first compound 0.006325 µM) of 0.344 and a relative viability ([20]; first compound 0.02 µM) of 0.396. For the same molecule, the relative viability ([20]; first compound 0.06325 µM) was 0.101, the relative viability ([20]; first compound 0.2 µM) was 0.0763 and the relative viability ([21]; first compound 0.002 µM) was 0.577. For the same molecule, the relative viability ([21]; first compound 0.006325 µM) was 0.566, the relative viability ([21]; first compound 0.02 µM) was 0.549 and the relative viability ([21]; first compound 0.06325 µM) was 0.144. The relative viability ([21]; first compound 0.2 µM) was 0.134, the relative viability ([22]; first compound 0.002 µM) was 0.32 and the relative viability ([22]; first compound 0.006325 µM) was 0.303. It also gave a relative viability ([22]; first compound 0.02 µM) of 0.296, a relative viability ([22]; first compound 0.06325 µM) of 0.273 and a relative viability ([22]; first compound 0.2 µM) of 0.2.
